Reference: patent US20150051220A1, “COMPOUNDS FOR USE IN THERAPY” (GLUCOX BIOTECH AB, priority 2012, published 2015)

Experiment: Stroke model, transient middle cerebral artery occlusion (tMCAO)
Assay type: in vivo
Conditions: mice, 60 min tMCAO, 3.2 mg/kg i.p. at 2 h and 12 h, sacrificed 24 h after tMCAO, vs vehicle
Procedure: FIG. 4 is a bar chart showing the infarct volume (mm3) in a mice model of stroke, where mice were treated with the inventive compound ethyl 2-(2-(4-(furan-2-carbonyl)piperazin-1-yl)acetamido)-5,6-dihydro-4H-cyclopenta[b]thiophene-3-carboxylate (“INVENTION”) or with vehicle (“CONTROL”).
The stroke disease model used in this example was mice that were subjected to transient middle cerebral artery occlusion (tMCAO) to mimic the mechanisms of ischemic stroke. Male mice weighing 20 g, was subjected to a 60 min of tMCAO as previously described (Elevers M et al., Sci. Signal 3: ra1, 2010; Bena_Erro A et al., Sci Signal 2: ra67). Sham-operated mice were used as control.
For the i.p. administrations performed in this study, 3.5 mg of ethyl 2-(2-(4-(furan-2-carbonyl)piperazin-1-yl)acetamido)-5,6-dihydro-4H-cyclopenta[b]thiophene-3-carboxylate was dissolved in 1 ml of DMSO and 5 ml of 20% Cremophor ELP in PBS then followed by additional PBS. The administered dose used in the experiment was 3.2 mg/kg and in the controls the same injection volume of vehicle was used. Administration was made at 2 h and 12 h for each mouse.
To determine infarct size and effect of Nox4 inhibitor, mice were sacrificed 24 h after tCMCAO and lesion volumes of the brain were determined according to a previously described methodology (Kleinschnitz et al, vide supra).

CCOC(=O)c1c(NC(=O)CN2CCN(C(=O)c3ccco3)CC2)sc2c1CCC2 [the inventive compound, ethyl 2-(2-(4-(furan-2-carbonyl)piperazin-1-yl)acetamido)-5,6-dihydro-4H-cyclopenta[b]thiophene-3-carboxylate]
lesion volume of the brain (infarct volume): significantly lower lesion volume of the brain
